Here are results for seven compounds from US6090610A, “Macrolide compound 0406” (Higeta Shoyu Co., Ltd., priority 1996, dated 2000).

≈ marks a conversion by molar mass, not a printed value.

In data set [1] the test system is Nocardia brasiliensis IFM 0406. Description: Sensitivity of Nocardia brasiliensis IFM 0406 against antibiotics. Type of data set: cell-based. The method, then: The strain was cultured in a culture medium (brain heart infusion containing 2% glucose) at 30° C. with shaking at 250 rpm for 72 hours, and the cells grown in the medium were collected by centrifuge at 3,000 rpm for 10 minutes, which were then washed twice in distilled water. Further, the cells were washed in ethanol and subsequently dried in vacuum to give the dry cells. According to Bergey's Manual of Determinative Bacteriology, the 9-th edition, Williams & Willkins, Baltimore, 1993, the amino acid composition, sugar composition and lipid composition of the dry cells were determined. Meso-diamino pimelic acid was detected by the amino acid analysis, while arabinose and galactose were detected by the sugar analysis. Also, the presence of mycolic acid was determined by the lipid analysis, and the type of the acid was Nocardia type. MK-8(H4) cycle was confirmed as a principal component of the isoprenoid quinone which is a part of the bacterial lipid, while as the trace components, MK-8(H4), MK-8(H), and MK-9(H2) were confirmed. Based onthe decomposition of adenine, casein, hypoxanthine and tyrosine and additionally on the formation patterns of acids from sugar and the antimicrobial sensitivity patterns, shown in Table 4 (Mikami & Yazawa, Susceptibility pattern of pathogenic Nocardia to some selected antimicrobial agents and their usefulness in the identification work in a clinical laboratory: BuLL. JFCC, 5: 89, 1989), the bacterial strain was identified as the species N. brasiliensis. The results of the analysis of the G+C content and DNA homology support strongly that the strain is N. brasiliensis.

The nature of data set [2]: Cytotoxity test, 3H-thymidine uptake, HEK-297. The class given is cell-based. To be noted: human, hek-297 cells; HEK-297, 96 h; read-out: IC50 (cytotoxity). On the procedure: (§1) After culturing for 96 hours, ^3 H-thymidine (0.5 μCi/well) was added into each well. The microtiter plate was incubated for 4 hours, followed by trypsin treatment of the cell lines excluding YAC-1, and the resulting cells were recovered on glass fiber filters to measure the radioactivity incorporated into the cells by means of a liquid scintillation counter. From the radioactivity (c) of a well with no addition of any sample and the radioactivity (t) of each of the wells with addition of the individual samples, the growth inhibition rate was determined by the formula […] (%). IC50 was calculated from the results.

Data set [3] can be described thus: Cytotoxity test, 3H-thymidine uptake, Cos-1. The class given is cell-based. The settings on record: monkey, cos-1 cells; Cos-1, 96 h; read-out: IC50 (cytotoxity). The method, then:
as §1

Data set [4] deals with cultured cell lines (HEK-297, Cos-1, YAC-1, HeLa). As to the kind of experiment: Cytotoxity test, overall comparison on cultured cell lines. The settings on record: in words. The class given is cell-based. On the procedure: (1) The cytotoxity test of compound 0406-A shown in Example 1 was carried out against cultured cell lines.
Cell suspensions (5.6×10^4 cells/ml) were prepared by using the Minimum Essential Medium (MEM)-Dulbecco's medium for HEK-297, Cos-1, and Hela cells, and the RPMI 1640 medium for YAC-1 cells (all media containing 10% bovine serum). Samples (0406A, Cyclosporin and Ascomycin) were prepared by serial two-fold dilution starting from 1 mg/ml, by using the individual media. A cell suspension (180 μl) and a sample solution (20 μl) were added into each well of a 96-well microtiter plate, for culturing at 37° C. in wet 5% CO2 -95% air environment. After culturing for 96 hours, ^3 H-thymidine (0.5 μCi/well) was added into each well. The microtiter plate was incubated for 4 hours, followed by trypsin treatment of the cell lines excluding YAC-1, and the resulting cells were recovered on glass fiber filters to measure the radioactivity incorporated into the cells by means of a liquid scintillation counter. From the radioactivity (c) of a well with no addition of any sample and the radioactivity (t) of each of the wells with addition of the individual samples, the growth inhibition rate was determined by the formula […] (%). IC50 was calculated from the results.

Data set [5] relates to cytotoxic T-cell (CTL) generation. As to the kind of experiment: In vitro cytotoxic T-cell activity (inhibitory effect on CTL generation induced by murine mixed lymphocyte reaction), 51Cr release from EL-4 cells. The class given is cell-based. The settings on record: for Cytotoxic T-cell activity: lytic units per 10^7 effector cells. On the procedure:
(2) In vitro cytotoxic T-cell activity (CTL: cytotoxic T-cell) (Inhibitory effect on CTL generation, induced by murine mixed lymphocyte reaction)
A suspension solution (5.5×10^6 cells/ml; 0.9 ml) of BALB/C (H-2^d) splenocytes prepared in the same manner as in Example 2, a suspension solution (5.5×10^6 cells/ml; 0.9 ml) of C57BL/6 (H-2^b) splenocytes preliminarily treated with mitomycin C, and a sample solution (0.2 ml) were added into a 24-well multi-dish, for culturing at 37° C. under conditions of 5% CO2 -95% air for 5 days. After completion of cultivation, the cells were recovered by centrifuge, which were then suspended in the RPMI 1640 medium containing 10% bovine serum, for use as the effector cells.
EL-4 cells (H-2^b) were used as the target cells. The incubation of the EL-4 cells (10^6) with 0.1 μCi Na2^51 CrO4 at 37° C. for 3 hours promoted the ^51 Cr uptake in the cells, and subsequently, the cells were washed and the concentration was adjusted to 2×10^5 cells/ml for use as the target cells.
The determination of the cytotoxic T-cell generation was carried out as follows. The effector cell suspension (100 μl) and the target cell suspension (100 μl) were added into a 96-well round-bottom microtiter plate for cultivation at 37° C. for 4 hours, to measure ^51 Cr release in the supernatant. Then, the cytotoxic T-cell activity was calculated by the formulated below.
Cytotoxic T-cell activity =
[radioactivity of (effector cell + target cell)] -
(radioactivity of target cell alone)/
(radioactivity of target cell treated with 0.1N HCl) -
(radioactivity of target cell alone) × 100
The activity of the cytotoxic T cell was represented in lytic unit (LU). The activity in LU was represented per 10^7 effector cells, when 1 LU was designated as the number of effector cells required for 20% lysis of the 2×10^4 target cells.

In data set [6] the test system is murine T cells (C57BL/6 splenocytes as responder cells). Description: Murine mixed lymphocyte reaction (MLR), T-cell blast formation by tritium-labeled thymidine uptake. Type of data set: cell-based. To be noted: Mus musculus, 96 h culture + 7 h labeling, read-out: IC50 (MLR, inhibition of tritium-labeled thymidine uptake).
Data set [7] is described as follows: Cytotoxity test, 3H-thymidine uptake, HeLa. To be noted: human, hela cells, read-out: IC50 (cytotoxity). The class given is cell-based. On the procedure:
as §1

A further data set can be described thus: Solubility. The class given is physicochemical.
Data set [8] is described as follows: Cytotoxity test, 3H-thymidine uptake, YAC-1. Type of data set: cell-based. To be noted: mouse, yac-1 cells; YAC-1, 96 h; read-out: IC50 (cytotoxity). The method, then:
as §1

The conditions of data set [9]: in words; cited from earlier work.

Regarding `NC[C@H]1O[C@H](O[C@H]2[C@H](O)[C@@H](O[C@H]3O[C@H](CO)[C@@H](O)[C@H](N)[C@H]3O)[C@H](N)C[C@@H]2N)[C@H](O)[C@@H](O)[C@@H]1O` [kanamycin], the Sensitivity against antibiotics result in data set [1] is listed as “negative”.

Consider `CCCCC(=O)OC1CC(OC(C)C(C)C(O)C(C)C(O)C(C)C2OC(=O)C=CCC(O)CC(O)CC(O)CCC(C)C(O)CC3(O)OC(CC(O)CC(OC(=O)CC(=O)O)CCCC(O)C4OC4C2C)CC(O)C3O)OC(C)C1O` (stereo not drawn) [0406-A], for which the CC50 at 96 h in data set [2], in [3], in data set [7] and in data set [8] was more than 100 µg/mL in each case. Moreover, in data set [4], the “cytotoxity level versus commercially available immuno suppressive agents” value was “lower than that of the commercially available immuno suppressive agents”. For the same compound, the “Cytotoxic T-cell activity” value in data set [5] (126 ng/ml) is on record as 22.0 u; in data set [5] (625 ng/ml), 12.5 u; in data set [5] (2,500 ng/ml) it was 0.1 u; in [5] (10,000 ng/ml), less than 0.1 u. The inhibition – broadly, the relative decrease from the control value, in per cent – at 0.126 µg/mL in [5] (Mus musculus, T-cell, 120 h, 126 ng/ml, read-out: Inhibition rate (cytotoxic T-cell activity)) worked out at 0%. Also, the inhibition at 0.625 µg/mL in data set [5] (Mus musculus, T-cell, 120 h, 625 ng/ml, read-out: Inhibition rate (cytotoxic T-cell activity)) was 39.5%. Moreover, the inhibition at 2.5 µg/mL in [5] (Mus musculus, T-cell, 120 h, 2,500 ng/ml, read-out: Inhibition rate (cytotoxic T-cell activity)) stood at 99.5%. Moreover, the inhibition at 10 µg/mL in [5] (Mus musculus, T-cell, 120 h, 10,000 ng/ml, read-out: Inhibition rate (cytotoxic T-cell activity)) is more than 99.5%. Further, in data set [5] (in words, dose dependence), the “induction of CTL” value is given as “decreased the induction of CTL in a dose-dependent manner”. Besides, in data set [6], the IC50 (as a rule, the concentration at which inhibition is half-maximal) was 0.16 µg/mL. Also, the Solubility entry in the data set “Solubility” (chloroform, ethyl acetate, ether) is “Insoluble in chloroform, ethyl acetate and ether”; in the data set “Solubility” (water, methanol, ethanol, DMSO), “Soluble in water, methanol, ethanol and DMSO”.

Take `C=CC[C@@H]1/C=C(\C)C[C@H](C)C[C@H](OC)[C@H]2O[C@@](O)(C(=O)C(=O)N3CCCC[C@H]3C(=O)O[C@H](/C(C)=C/[C@@H]3CC[C@@H](O)[C@H](OC)C3)[C@H](C)[C@@H](O)CC1=O)[C@H](C)C[C@@H]2OC` [tacrorims]: the side effects entry in [9] is “deleterious in the pancreas and the kidney”.

As for `NC[C@H]1O[C@H](O[C@H]2[C@H](O)[C@@H](O[C@H]3O[C@H](CO)[C@@H](O)[C@H](N)[C@H]3O)[C@H](N)C[C@@H]2N)[C@H](N)C[C@@H]1O` [tobramycin], the Sensitivity against antibiotics result in data set [1] is “positive”.

As for `O=c1[nH]cc(F)c(=O)[nH]1` [5-FU], the Sensitivity against antibiotics result in data set [1] was “negative”.

Regarding `CC[C@@H]1/C=C(\C)C[C@H](C)C[C@H](OC)[C@H]2O[C@@](O)(C(=O)C(=O)N3CCCC[C@H]3C(=O)O[C@H](/C(C)=C/[C@@H]3CC[C@@H](O)[C@H](OC)C3)[C@H](C)[C@@H](O)CC1=O)[C@H](C)C[C@@H]2OC` [Ascomycin, reference compound], the CC50 at 96 h in [2] was 25 µg/mL (≈ 31.6 µM); in [3] it was 58 µg/mL (≈ 73.2 µM); in [7], 13 µg/mL (≈ 16.4 µM); in [8], 50 µg/mL (≈ 63.1 µM). For the same compound, the IC50 in data set [6] stood at 0.008 µg/mL.

As for `C[C@@H](O)[C@H]1C(=O)N2C(C(=O)O)=C(SCCN=CN)C[C@H]12` [imipenem], the Sensitivity against antibiotics result in data set [1] is “negative”.
